Test results as given in US20100267796A1, “THERAPEUTIC AGENT FOR IRRITABLE BOWEL SYNDROME” (KYOWA HAKKO KOGYO CO., LTD., priority 2006, published 2010).

Test system: loperamide-induced constipation
Assay: Activity on loperamide-induced constipation
Assay type: in vivo, male SD rats
Settings: doses of 0.01, 0.1 and 1 mg/kg p.o. 1 hour before loperamide 5 mg/kg; rats, n=15; vs. control group
Procedure: The therapeutic effect of the compounds of the present application on constipation was evaluated by the method described below. Compound 1-1 was used as a test compound.
To Compound 1-1, 0.5 w/v % methyl cellulose 400 (MC, manufactured by Wako Pure Chemical Industries, Ltd.) was added, followed by lightly mixing with a mixer (TTM-1, Shibata Scientific Technology Ltd.). Then, the resultant mixture was subjected to ultrasonic treatment (1 minute) with an ultrasonic cleaner (Sine Sonic UA100, Hitachi Kokusai Denki Engineering Co., Ltd.), and suspended by re-mixing with the mixer to prepare a suspension at a concentration of 0.2 mg/mL. […]
A day before the test, the rat tails were numbered for identification and the body weights were measured. […] The collected stools were dried (100° C., 6 hours) with a dryer (SH42, Yamato Scientific Co., Ltd.), and the weight was measured with an electronic balance (AB54, Mettler-Toledo AG). […]
With respect to the fecal amount, a dry weight was used, and an amount of stools for 0 to 8 hours was used as a measurement parameter. The fecal pellets were collected in a tare (aluminum foil) whose weight was previously measured, and the weight was calculated by subtracting the weight of the tare from the weight including the tare weight. […]

Structure (SMILES): C[C@](O)(C(=O)Nc1cccc2c1C(=O)c1sccc1CS2(=O)=O)C(F)(F)F [Compound 1-1]
- fecal amount (dry weight) 0 to 8 hours after the administration of loperamide: significantly inhibits a decrease in fecal amount
